One data set addresses T1, glucocorticoid receptors (Rattus norvegicus, UniProt P06536).
T1 sequence (P06536 1-795): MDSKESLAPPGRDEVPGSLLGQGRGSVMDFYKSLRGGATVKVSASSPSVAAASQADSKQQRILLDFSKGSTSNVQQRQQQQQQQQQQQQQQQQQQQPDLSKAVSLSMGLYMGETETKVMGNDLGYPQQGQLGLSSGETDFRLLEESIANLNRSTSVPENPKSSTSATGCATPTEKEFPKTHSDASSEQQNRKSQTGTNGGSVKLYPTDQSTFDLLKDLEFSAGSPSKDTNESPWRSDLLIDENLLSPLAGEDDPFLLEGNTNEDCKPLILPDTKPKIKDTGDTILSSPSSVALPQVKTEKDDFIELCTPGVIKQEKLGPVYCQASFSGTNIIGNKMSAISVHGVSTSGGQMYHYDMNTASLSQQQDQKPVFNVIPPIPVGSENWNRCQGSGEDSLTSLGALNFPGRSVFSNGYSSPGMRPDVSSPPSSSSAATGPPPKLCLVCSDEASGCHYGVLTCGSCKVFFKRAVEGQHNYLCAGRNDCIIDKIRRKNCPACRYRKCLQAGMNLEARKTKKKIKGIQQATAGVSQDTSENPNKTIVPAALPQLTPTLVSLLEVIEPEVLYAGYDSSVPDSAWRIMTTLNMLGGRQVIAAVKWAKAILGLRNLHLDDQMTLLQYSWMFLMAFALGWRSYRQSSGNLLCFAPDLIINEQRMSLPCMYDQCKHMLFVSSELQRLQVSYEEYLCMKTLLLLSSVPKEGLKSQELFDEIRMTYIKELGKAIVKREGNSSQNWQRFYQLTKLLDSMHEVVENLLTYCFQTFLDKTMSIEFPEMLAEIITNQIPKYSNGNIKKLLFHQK
Briefly: Glucocorticoid binding assay (competitive binding with [6,7-3H]triamcinolone acetonide). The following applies: displacement of [6,7-3H]triamcinolone acetonide; glucocorticoid receptors from rat brains; 50 mM KH2PO4 pH 7.4, 0° C., 16 hours. As to the method: The assay was used to determine whether the tested compounds bound to the glucocorticoid binding site and is based on procedures set forth in the literature. […] Int. […] Briefly, using competitive binding of with the radioligand “[6,7-^3H]triamcinolone acetonide” (30-50 Cl/mmol), reactions were carried out in 50 mM KH2PO4 (pH 7.4) containing 10 mM sodium molybdate and 10 mM α-monothioglycerol at 0° C. for 16 hours. The glucocorticoid receptors were obtained from rat brains. The reactions were terminated by rapid vacuum filtration onto glass fiber filters. Radioactively trapped onto the filters is determined and compared to control values. […] A higher IC50 value reflects a weaker binding affinity.

Like-named read-outs stand apart in the source and are kept apart here.

Here are results for five compounds from patent publication US11464788B2, “Oligomer-corticosteroid conjugates” (Nektar Therapeutics, priority 2007, dated 2022).

For the compound `C[C@]12CCC(=O)C=C1CC[C@@H]1[C@@H]2C(=O)C[C@@]2(C)[C@H]1CC[C@]2(O)C(=O)CO` [Cortisone], the “stability of the drug” value is, setting by setting: (pH 5.5) “stable”; (pH 7.4) “many decomposed impurities”.

Regarding `C[C@]12CCC(=O)C=C1CC[C@@H]1[C@@H]2[C@@H](O)C[C@@]2(C)[C@H]1CC[C@]2(O)C(=O)CO` [Hydrocortisone], the “stability of the drug” value (pH 7.4) is “much more stable than cortisone”.

`CC1(C)O[C@@H]2C[C@H]3[C@@H]4CCC5=CC(=O)C=C[C@]5(C)[C@@]4(F)[C@@H](O)C[C@]3(C)[C@]2(C(=O)CO)O1` [Triamcinolone Acetonide]: the half-inhibitory concentration (IC50) (in general, the point on the concentration scale where inhibition reaches its midpoint) on glucocorticoid receptors is 1.21 nM.

With `COCCOCCOCCOCCOCCOCCOCCOC(=O)NN=C1C=C2CCC3C(C(=O)CC4(C)C3CCC4(O)C(=O)CO)C2(C)CC1` (centres unmarked) [mPEG7-Cortisone], the “cortisone release from the conjugate (hydrolysis)” value reads like this: (pH 5.5) “able to release cortisone clearly”; (pH 7.4) “much slower than that at pH 5.5”. In addition, the IC50 at glucocorticoid receptors amounted to 3440 nM.

Regarding `COCCOCCOCCOCCOCCOCCOCCOC(=O)NN=C1C=C2CCC3C(C(O)CC4(C)C3CCC4(O)C(=O)CO)C2(C)CC1` (centres unmarked) [mPEG7-Hydrocortisone], at glucocorticoid receptors, the IC50 is 3.93 nM.
